Source: PMC10547168, “Cell cycle-dependent organization of a bacterial centromere through multi-layered regulation of the ParABS system” (PLOS Genetics, 2023)

Target: T1, ParBBb (Bdellovibrio bacteriovorus, UniProt Q6MGM0)
T1 construct: gene parB; C-terminal 6xHis tag kept (pET21), expressed in E. coli BL21(DE3); HisTrap and Superdex 75 purified; dimer
T1 sequence (Q6MGM0 1-337): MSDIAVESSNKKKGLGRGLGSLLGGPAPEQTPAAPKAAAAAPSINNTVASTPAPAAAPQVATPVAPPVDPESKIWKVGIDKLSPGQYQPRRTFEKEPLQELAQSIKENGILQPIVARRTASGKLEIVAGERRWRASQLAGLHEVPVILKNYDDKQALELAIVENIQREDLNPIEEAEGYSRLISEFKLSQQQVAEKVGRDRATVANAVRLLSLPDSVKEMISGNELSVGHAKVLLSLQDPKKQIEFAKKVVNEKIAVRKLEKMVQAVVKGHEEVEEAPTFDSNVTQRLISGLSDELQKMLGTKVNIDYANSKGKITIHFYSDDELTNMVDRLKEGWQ
Experiment: EnzChek phosphate release assay (A360)
Assay type: biochemical
Conditions: 1 mM NTP, 1 uM ParBBb, 22 bp parSBb DNA duplex, Mg2+, Tris pH 8.0, 25 °C

## Nc1ccn([C@@H]2O[C@H](COP(=O)(O)OP(=O)(O)OP(=O)(O)O)[C@@H](O)[C@H]2O)c(=O)n1 [CTP]
  EnzChek phosphate release assay (A360): ParBBb hydrolyses CTP but no other NTPs in the presence of parSBb
